Test results published in patent EP0974353A2, “The use of homocysteine derivatives for the preparation of medicaments inhibiting bacterial adhesiveness” (EDMOND PHARMA S.R.L., priority 1998, dated 2000).
“Also recorded” adds a separate entry of the source.

How the values were obtained:
[1] = tested on: E. coli strains, ATCC 25922 strain and two others isolated from human urinary infections; test: Inhibition of bacterial adhesiveness to human buccal/palatal epithelial cells, E. coli; type: cell-based; settings: three E. coli strains; for inhibitory activity on adhesiveness: even at the maximum tested concentration (10 mcg/ml)
Experimental: (§1) Said procedures consist in incubating the active substance with bacteria in order to interfere with their adhesiveness mechanism and subsequently adding mucosa cells, observing the obtained result.
(§2) Human epithelial cells were collected from buccal and palatal mucosa of healthy volunteers by a sterile spatula, subsequently immersed in 2 ml of physiological saline buffered with phosphate buffer, combining then the suspensions from different volunteers.
(§3) Tests were carried out with three different E. coli strains, ATCC 25922 strain and two others isolated from human urinary infections, as well as with three S. aureus strains, ATCC 25923 strain and two others from human respiratory infections, using concentrations of 1.25, 2.5, 5 and 10 mcg/ ml for each tested compound.

bacterial adhesiveness = test: Inhibition of bacterial adhesiveness, bacterium not specified; type: cell-based; settings: bacterium and concentration not given; general statement
Experimental: as §1, §2, §3

[2] = tested on: S. aureus strains, ATCC 25923 strain and two others from human respiratory infections; test: Inhibition of bacterial adhesiveness to human buccal/palatal epithelial cells, S. aureus; type: cell-based
Experimental: as §1, §2, §3

[3] = rank among the erdosteine metabolites; from R. Scuri et al.; cited from earlier work

For `CC(=O)N[C@@H](CCS)C(=O)O` [N-acetylhomocysteine], which “inhibitory activity on adhesiveness” value [1] is on record?
Its value is “no inhibitory activity”.

With `O=C(O)CSCC(=O)NC1CCSC1=O` (stereo not shown) [erdosteine, N-(thiodiglycoyl)homocysteine gamma-thiolactone] as the compound, how does the “inhibition of bacterial adhesiveness” value (bacterial adhesiveness) read?
Its value is “not inhibited in a statistically significant way; also recorded: almost devoid of such an activity”.

For `O=C(O)CSCC(=O)NC(CCS)C(=O)O` (stereo not shown) [compound (A), N-(Thiodiglycoyl)homocysteine], which “inhibitory activity of bacterial adhesiveness” value ([1]; already at a concentration of 2.5 mcg/ml, compared with the control (bacteria with no tested compound)) is on record?
Its value is “significant inhibitory activity”.

And the “reduction of S. aureus adhesiveness to epithelial cells” value ([2]; at concentrations of 2.5 to 10 mcg/ml)?
Its value is “significant reduction”.

What about the “inhibition of bacterial adhesiveness” value (bacterial adhesiveness) of the same compound?
The value was “remarkable inhibitory activity”.

What about the mucolytic activity [3] of the same compound?
The mucolytic activity was “lowest mucolytic activity”.

With `N[C@@H](CCS)C(=O)O` [homocysteine] as the compound, how does the “inhibitory activity on adhesiveness, difference compared with the control test” value ([1]; concentration not stated (tested 1.25, 2.5, 5 and 10 mcg/ml)) read?
Its value is “some difference, which however was not statistically significant”.

With `CC(=O)N[C@@H](CS)C(=O)O` [N-acetylcysteine] as the compound, how does the “inhibitory activity on adhesiveness” value [1] read?
Its value is “no inhibitory activity”.

And the “activity in reducing bacterial adhesiveness” value ([2]; incubation with S. aureus, concentration not stated (tested 1.25, 2.5, 5 and 10 mcg/ml))?
The value was “no specific activity”.

And the “inhibition of bacterial adhesiveness” value (bacterial adhesiveness)?
The value was “much less active, or even inactive”.
